Test results as given in ChEMBL document CHEMBL4507320, “Data for DCP probe NVS-MALT1” (2021).

Legend:
[1] = target: Cyclin-dependent kinase 5 (Homo sapiens) (UniProt Q00535); settings: Compound concentration 1000.0 nM
[2] = target: Mu-type opioid receptor (Homo sapiens) (UniProt P35372); settings: Compound concentration 10.0 uM
[3] = target: Tyrosine-protein kinase ZAP-70 (Homo sapiens) (UniProt P43403); settings: Compound concentration 1000.0 nM
[4] = target: Homeodomain-interacting protein kinase 2 (Homo sapiens) (UniProt Q9H2X6); settings: Compound concentration 1000.0 nM
[5] = target: Tyrosine-protein kinase Blk (Homo sapiens) (UniProt P51451); settings: Compound concentration 1000.0 nM
[6] = target: Serine/threonine-protein kinase RIO3 (Homo sapiens) (UniProt O14730); settings: Compound concentration 1000.0 nM
Chain of Serine/threonine-protein kinase RIO3 (Homo sapiens) (O14730 whole entry): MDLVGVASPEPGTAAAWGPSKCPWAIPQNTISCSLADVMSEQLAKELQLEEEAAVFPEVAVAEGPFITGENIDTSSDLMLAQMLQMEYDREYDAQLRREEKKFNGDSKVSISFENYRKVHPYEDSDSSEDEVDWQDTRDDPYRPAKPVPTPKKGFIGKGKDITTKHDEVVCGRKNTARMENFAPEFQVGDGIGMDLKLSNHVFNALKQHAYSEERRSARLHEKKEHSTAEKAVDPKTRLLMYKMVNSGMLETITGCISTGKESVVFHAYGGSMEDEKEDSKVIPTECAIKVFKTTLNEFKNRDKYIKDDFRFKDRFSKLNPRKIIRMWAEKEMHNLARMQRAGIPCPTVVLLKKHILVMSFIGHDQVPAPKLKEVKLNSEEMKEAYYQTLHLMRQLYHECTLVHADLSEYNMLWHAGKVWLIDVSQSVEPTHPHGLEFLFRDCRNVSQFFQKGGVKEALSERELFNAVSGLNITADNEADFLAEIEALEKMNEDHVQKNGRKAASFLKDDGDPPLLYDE

[7] = target: Muscle, skeletal receptor tyrosine-protein kinase (Homo sapiens) (UniProt O15146); settings: Compound concentration 1000.0 nM
[8] = target: Serine/threonine-protein kinase LATS2 (Homo sapiens) (UniProt Q9NRM7); settings: Compound concentration 1000.0 nM
[9] = target: Phosphatidylinositol 4,5-bisphosphate 3-kinase catalytic subunit beta isoform (Homo sapiens) (UniProt P42338); settings: Compound concentration 1000.0 nM
[10] = target: Rho-associated protein kinase 2 (Homo sapiens) (UniProt O75116); settings: Compound concentration 1000.0 nM
[11] = target: Mitogen-activated protein kinase kinase kinase 9 (Homo sapiens) (UniProt P80192); settings: Compound concentration 1000.0 nM
Chain of Mitogen-activated protein kinase kinase kinase 9 (Homo sapiens) (P80192 whole entry, looked up): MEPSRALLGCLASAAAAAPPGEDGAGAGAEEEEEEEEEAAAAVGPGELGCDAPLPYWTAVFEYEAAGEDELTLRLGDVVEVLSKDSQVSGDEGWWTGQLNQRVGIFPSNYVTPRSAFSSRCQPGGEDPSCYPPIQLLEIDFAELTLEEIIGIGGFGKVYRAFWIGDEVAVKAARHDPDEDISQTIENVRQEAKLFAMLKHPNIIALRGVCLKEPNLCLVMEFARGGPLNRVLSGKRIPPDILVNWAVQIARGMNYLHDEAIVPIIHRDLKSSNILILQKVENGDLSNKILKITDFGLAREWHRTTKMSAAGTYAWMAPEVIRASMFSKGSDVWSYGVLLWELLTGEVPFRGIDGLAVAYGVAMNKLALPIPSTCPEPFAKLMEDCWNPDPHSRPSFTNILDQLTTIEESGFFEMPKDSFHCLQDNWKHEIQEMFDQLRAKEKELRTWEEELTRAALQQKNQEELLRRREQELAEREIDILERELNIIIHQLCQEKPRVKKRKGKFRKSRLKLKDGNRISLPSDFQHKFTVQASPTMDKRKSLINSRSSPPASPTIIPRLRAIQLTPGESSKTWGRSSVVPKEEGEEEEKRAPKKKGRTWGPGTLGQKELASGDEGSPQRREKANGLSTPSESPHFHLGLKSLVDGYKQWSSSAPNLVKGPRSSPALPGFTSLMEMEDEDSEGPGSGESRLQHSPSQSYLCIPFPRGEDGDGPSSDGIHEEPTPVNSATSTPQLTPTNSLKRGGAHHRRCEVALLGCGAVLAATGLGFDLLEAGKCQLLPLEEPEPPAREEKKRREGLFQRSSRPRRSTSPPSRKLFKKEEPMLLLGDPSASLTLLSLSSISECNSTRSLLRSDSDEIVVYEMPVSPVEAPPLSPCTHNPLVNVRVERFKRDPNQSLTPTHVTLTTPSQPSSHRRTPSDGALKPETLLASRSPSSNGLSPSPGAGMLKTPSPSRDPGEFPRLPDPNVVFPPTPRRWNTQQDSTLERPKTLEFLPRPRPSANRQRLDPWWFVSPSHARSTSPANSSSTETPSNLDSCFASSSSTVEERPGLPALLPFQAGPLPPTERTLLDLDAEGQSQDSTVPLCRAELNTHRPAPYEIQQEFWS

[12] = target: Activin receptor type-2A (Homo sapiens) (UniProt P27037); settings: Compound concentration 1000.0 nM
[13] = target: Ribosomal protein S6 kinase alpha-6 (Homo sapiens) (UniProt Q9UK32); settings: Compound concentration 1000.0 nM
Chain of Ribosomal protein S6 kinase alpha-6 (Homo sapiens) (Q9UK32 whole entry): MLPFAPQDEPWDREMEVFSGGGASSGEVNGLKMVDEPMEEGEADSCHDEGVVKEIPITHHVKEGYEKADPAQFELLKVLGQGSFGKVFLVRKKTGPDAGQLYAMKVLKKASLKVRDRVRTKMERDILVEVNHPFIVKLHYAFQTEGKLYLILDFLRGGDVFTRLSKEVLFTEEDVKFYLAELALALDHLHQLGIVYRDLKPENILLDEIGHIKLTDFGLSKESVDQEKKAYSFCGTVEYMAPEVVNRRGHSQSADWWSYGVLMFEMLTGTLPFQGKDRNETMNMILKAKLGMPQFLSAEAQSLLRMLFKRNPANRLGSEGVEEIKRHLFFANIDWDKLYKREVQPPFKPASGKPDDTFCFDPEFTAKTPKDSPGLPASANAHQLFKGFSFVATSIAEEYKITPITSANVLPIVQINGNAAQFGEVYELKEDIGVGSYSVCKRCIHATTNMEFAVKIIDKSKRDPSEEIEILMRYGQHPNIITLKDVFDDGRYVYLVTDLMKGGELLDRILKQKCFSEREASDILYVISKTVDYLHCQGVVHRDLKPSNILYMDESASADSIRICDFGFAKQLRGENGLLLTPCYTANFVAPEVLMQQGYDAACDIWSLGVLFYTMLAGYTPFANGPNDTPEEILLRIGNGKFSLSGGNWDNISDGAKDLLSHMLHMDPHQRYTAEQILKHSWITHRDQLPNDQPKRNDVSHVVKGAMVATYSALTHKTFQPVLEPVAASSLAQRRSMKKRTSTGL

[14] = target: Activin receptor type-2B (Homo sapiens) (UniProt Q13705); settings: Compound concentration 1000.0 nM
Chain of Activin receptor type-2B (Homo sapiens) (Q13705 whole entry): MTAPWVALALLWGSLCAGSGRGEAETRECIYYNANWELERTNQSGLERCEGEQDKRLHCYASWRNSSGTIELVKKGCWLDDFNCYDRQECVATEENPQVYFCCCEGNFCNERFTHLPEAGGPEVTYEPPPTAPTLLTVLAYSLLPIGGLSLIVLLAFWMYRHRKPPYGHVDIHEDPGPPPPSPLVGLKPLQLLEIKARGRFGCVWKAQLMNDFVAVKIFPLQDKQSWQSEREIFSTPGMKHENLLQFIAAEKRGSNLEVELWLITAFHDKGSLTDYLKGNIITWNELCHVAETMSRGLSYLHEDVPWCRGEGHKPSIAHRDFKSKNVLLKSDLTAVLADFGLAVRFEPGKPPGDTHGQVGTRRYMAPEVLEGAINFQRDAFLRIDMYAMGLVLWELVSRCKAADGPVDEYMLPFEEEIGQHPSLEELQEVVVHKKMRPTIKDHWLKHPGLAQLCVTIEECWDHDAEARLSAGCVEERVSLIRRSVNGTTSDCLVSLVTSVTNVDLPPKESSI

[15] = tested on: Tyrosine-protein kinase ABL1 (Homo sapiens), P00519 [T315I]; settings: Compound concentration 1000.0 nM
[16] = target: Mitogen-activated protein kinase kinase kinase 4 (Homo sapiens) (UniProt Q9Y6R4); settings: Compound concentration 1000.0 nM
[17] = tested on: Tyrosine-protein kinase ABL1 (Homo sapiens), P00519 [F317I]; settings: Compound concentration 1000.0 nM
[18] = target: Dual specificity protein kinase CLK1 (Homo sapiens) (UniProt P49759); settings: Compound concentration 1000.0 nM
[19] = tested on: Epidermal growth factor receptor (Homo sapiens), P00533 [UNDEFINED MUTATION]; settings: Compound concentration 1000.0 nM
[20] = target: Hormonally up-regulated neu tumor-associated kinase (Homo sapiens) (UniProt P57058); settings: Compound concentration 1000.0 nM
[21] = target: Sigma non-opioid intracellular receptor 1 (Homo sapiens, UniProt Q99720); settings: Compound concentration 10.0 uM
[22] = target: GABA-A receptor; anion channel (Rattus norvegicus) (UniProt O09028+P15431+P18506+P18508+P19969+P20236+P23574+P23576+P28471+P28473+P30191+P62813+P63079+P63138+Q91ZM7+Q9ES14); settings: Compound concentration 10.0 uM
[23] = target: Ribosomal protein S6 kinase alpha-4 (Homo sapiens) (UniProt O75676); settings: Compound concentration 1000.0 nM
[24] = target: Dual specificity mitogen-activated protein kinase kinase 7 (Homo sapiens) (UniProt O14733); settings: Compound concentration 1000.0 nM
[25] = target: Cytoplasmic tyrosine-protein kinase BMX (Homo sapiens) (UniProt P51813); settings: Compound concentration 1000.0 nM
[26] = target: Mitogen-activated protein kinase kinase kinase 1 (Homo sapiens) (UniProt Q13233); settings: Compound concentration 1000.0 nM
[27] = target: Tyrosine-protein kinase Yes (Homo sapiens) (UniProt P07947); settings: Compound concentration 1000.0 nM
[28] = target: Vascular endothelial growth factor receptor 1 (Homo sapiens) (UniProt P17948); settings: Compound concentration 1000.0 nM
[29] = target: Tyrosine-protein kinase JAK1 (Homo sapiens) (UniProt P23458); settings: Compound concentration 1000.0 nM
[30] = target: Mitogen-activated protein kinase 14 (Homo sapiens) (UniProt Q16539); settings: Compound concentration 1000.0 nM
[31] = target: Calcium/calmodulin-dependent protein kinase kinase 2 (Homo sapiens) (UniProt Q96RR4); settings: Compound concentration 1000.0 nM
[32] = target: cAMP-dependent protein kinase catalytic subunit alpha (Homo sapiens) (UniProt P17612); settings: Compound concentration 1000.0 nM
[33] = target: MAP kinase-interacting serine/threonine-protein kinase 2 (Homo sapiens) (UniProt Q9HBH9); settings: Compound concentration 1000.0 nM
Chain of MAP kinase-interacting serine/threonine-protein kinase 2 (Homo sapiens) (Q9HBH9 whole entry, looked up): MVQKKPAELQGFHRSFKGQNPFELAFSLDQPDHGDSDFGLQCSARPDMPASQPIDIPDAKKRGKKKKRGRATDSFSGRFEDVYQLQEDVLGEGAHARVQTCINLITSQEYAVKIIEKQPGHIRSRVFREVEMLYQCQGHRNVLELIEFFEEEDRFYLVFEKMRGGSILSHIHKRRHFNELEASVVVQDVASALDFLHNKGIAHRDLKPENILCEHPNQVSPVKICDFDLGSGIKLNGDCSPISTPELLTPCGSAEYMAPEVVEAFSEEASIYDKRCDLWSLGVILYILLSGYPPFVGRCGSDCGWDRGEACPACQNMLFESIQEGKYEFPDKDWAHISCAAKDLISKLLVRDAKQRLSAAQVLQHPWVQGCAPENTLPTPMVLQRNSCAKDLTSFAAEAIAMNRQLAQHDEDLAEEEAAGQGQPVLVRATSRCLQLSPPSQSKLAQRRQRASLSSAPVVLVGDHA

[34] = target: Myosin light chain kinase 2, skeletal/cardiac muscle (Homo sapiens) (UniProt Q9H1R3); settings: Compound concentration 1000.0 nM
[35] = target: Serine/threonine-protein kinase BRSK1 (Homo sapiens) (UniProt Q8TDC3); settings: Compound concentration 1000.0 nM
[36] = target: Interferon-induced, double-stranded RNA-activated protein kinase (Homo sapiens) (UniProt P19525); settings: Compound concentration 1000.0 nM
[37] = target: Ephrin type-B receptor 3 (Homo sapiens) (UniProt P54753); settings: Compound concentration 1000.0 nM
[38] = tested on: Mast/stem cell growth factor receptor Kit (Homo sapiens), P10721 [V559D,T670I]; settings: Compound concentration 1000.0 nM
[39] = target: Protein-tyrosine kinase 6 (Homo sapiens) (UniProt Q13882); settings: Compound concentration 1000.0 nM
Chain of Protein-tyrosine kinase 6 (Homo sapiens) (Q13882 whole entry, looked up): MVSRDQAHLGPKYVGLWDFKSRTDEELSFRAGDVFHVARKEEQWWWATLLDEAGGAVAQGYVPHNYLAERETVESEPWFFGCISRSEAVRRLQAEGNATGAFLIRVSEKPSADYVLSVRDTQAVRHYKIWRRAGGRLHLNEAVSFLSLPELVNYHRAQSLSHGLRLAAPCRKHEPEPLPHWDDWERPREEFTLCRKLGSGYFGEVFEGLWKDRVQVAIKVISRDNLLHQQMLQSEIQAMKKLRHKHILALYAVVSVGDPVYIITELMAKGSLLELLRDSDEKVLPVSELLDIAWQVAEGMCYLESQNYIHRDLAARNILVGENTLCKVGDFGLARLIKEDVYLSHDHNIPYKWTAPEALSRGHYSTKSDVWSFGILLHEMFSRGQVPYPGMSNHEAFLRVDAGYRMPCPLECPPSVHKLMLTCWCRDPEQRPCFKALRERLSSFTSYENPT

[40] = target: Testis-specific serine/threonine-protein kinase 3 (Homo sapiens) (UniProt Q96PN8); settings: Compound concentration 1000.0 nM
[41] = target: Receptor tyrosine-protein kinase erbB-2 (Homo sapiens) (UniProt P04626); settings: Compound concentration 1000.0 nM
Chain of Receptor tyrosine-protein kinase erbB-2 (Homo sapiens) (P04626 whole entry): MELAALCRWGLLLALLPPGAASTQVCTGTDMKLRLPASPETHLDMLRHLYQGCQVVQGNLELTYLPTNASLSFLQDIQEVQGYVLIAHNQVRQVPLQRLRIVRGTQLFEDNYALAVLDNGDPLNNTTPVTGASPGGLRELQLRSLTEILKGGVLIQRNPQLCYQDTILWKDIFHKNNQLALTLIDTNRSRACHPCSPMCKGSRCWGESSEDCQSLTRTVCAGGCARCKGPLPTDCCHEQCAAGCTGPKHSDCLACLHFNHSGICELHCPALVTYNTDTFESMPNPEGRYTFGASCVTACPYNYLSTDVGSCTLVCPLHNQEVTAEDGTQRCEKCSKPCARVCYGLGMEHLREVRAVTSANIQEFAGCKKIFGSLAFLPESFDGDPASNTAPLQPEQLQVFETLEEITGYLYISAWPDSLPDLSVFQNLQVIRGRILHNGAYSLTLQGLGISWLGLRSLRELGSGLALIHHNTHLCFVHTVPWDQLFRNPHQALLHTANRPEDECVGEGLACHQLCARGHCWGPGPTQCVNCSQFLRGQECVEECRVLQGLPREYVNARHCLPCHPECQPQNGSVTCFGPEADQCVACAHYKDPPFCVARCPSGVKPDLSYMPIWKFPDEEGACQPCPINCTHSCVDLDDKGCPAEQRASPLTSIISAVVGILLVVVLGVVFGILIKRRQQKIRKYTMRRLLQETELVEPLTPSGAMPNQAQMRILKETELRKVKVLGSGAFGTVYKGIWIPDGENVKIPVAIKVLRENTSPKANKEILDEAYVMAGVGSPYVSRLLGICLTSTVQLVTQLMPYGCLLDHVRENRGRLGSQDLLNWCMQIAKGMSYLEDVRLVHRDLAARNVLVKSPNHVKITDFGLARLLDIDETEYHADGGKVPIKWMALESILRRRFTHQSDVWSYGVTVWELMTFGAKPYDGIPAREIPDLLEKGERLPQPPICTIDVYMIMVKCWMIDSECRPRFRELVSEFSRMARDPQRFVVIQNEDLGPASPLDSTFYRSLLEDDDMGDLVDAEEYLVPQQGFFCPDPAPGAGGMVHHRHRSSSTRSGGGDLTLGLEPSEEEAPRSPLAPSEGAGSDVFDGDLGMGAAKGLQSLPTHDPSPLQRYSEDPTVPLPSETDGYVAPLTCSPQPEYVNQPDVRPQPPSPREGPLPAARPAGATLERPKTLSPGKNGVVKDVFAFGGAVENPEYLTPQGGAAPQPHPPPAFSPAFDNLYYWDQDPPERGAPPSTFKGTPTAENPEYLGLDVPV

[42] = target: Cyclin-dependent kinase 3 (Homo sapiens) (UniProt Q00526); settings: Compound concentration 1000.0 nM
[43] = target: Insulin-like growth factor 1 receptor (Homo sapiens) (UniProt P08069); settings: Compound concentration 1000.0 nM

For `CO[C@@H](C)c1c(Nc2ccc([C@H](N(C)C(=O)C3CCS(=O)(=O)CC3)C(F)(F)F)cc2)cnc2cc(Cl)nn12` [NVS-MALT1], the residual activity [1] was 96%, the inhibition [2] was 6.13% and the residual activity [3] was 100%. The residual activity [4] was 100%, the residual activity [5] was 87% and the residual activity [6] was 82%. The residual activity [7] was 83%, the residual activity [8] was 100% and the residual activity [9] was 65%. It also gave a residual activity [10] of 100%, a residual activity [11] of 100% and a residual activity [12] of 93%. The residual activity [13] was 91%, the residual activity [14] was 66% and the residual activity [15] was 87%. The residual activity [16] was 89%, the residual activity [17] was 100% and the residual activity [18] was 81%. For the same compound, the residual activity [19] was 100%, the residual activity [20] was 100% and the inhibition [21] was 18.8%. It also gave an inhibition [22] of 21.3%, a residual activity [23] of 100% and a residual activity [24] of 100%. The residual activity [25] was 99%, the residual activity [26] was 100% and the residual activity [27] was 99%. For the same compound, the residual activity [28] was 82%, the residual activity [29] was 91% and the residual activity [30] was 88%. For the same compound, the residual activity [31] was 80%, the residual activity [32] was 90% and the residual activity [33] was 100%. For the same compound, the residual activity [34] was 83%, the residual activity [35] was 78% and the residual activity [36] was 96%. For the same compound, the residual activity [37] was 100%, the residual activity [38] was 86% and the residual activity [39] was 81%. For the same compound, the residual activity [40] was 81%, the residual activity [41] was 59% and the residual activity [42] was 90%. It also gave a residual activity [43] of 100%.
`CO[C@@H](C)c1c(Nc2ccc([C@@H](N(C)C(=O)C3CCS(=O)(=O)CC3)C(F)(F)F)cc2)cnc2cc(Cl)nn12` [NVS-MALT1-C] was tested, and the residual activity [1] was 99%, the inhibition [2] was 6.39% and the residual activity [3] was 100%. The residual activity [4] was 100%, the residual activity [5] was 56% and the residual activity [6] was 90%. The residual activity [7] was 88%, the residual activity [8] was 88% and the residual activity [9] was 72%. For the same compound, the residual activity [10] was 100%, the residual activity [11] was 81% and the residual activity [12] was 100%. The residual activity [13] was 98%, the residual activity [14] was 100% and the residual activity [15] was 78%. The residual activity [16] was 89%, the residual activity [17] was 100% and the residual activity [18] was 82%. The residual activity [19] was 90%, the residual activity [20] was 100% and the inhibition [21] was 56.8%. For the same compound, the inhibition [22] was 20.8%, the residual activity [23] was 100% and the residual activity [24] was 100%. The residual activity [25] was 83%, the residual activity [26] was 96% and the residual activity [27] was 100%. For the same compound, the residual activity [28] was 85%, the residual activity [29] was 90% and the residual activity [30] was 83%. For the same compound, the residual activity [31] was 100%, the residual activity [32] was 87% and the residual activity [33] was 85%. For the same compound, the residual activity [34] was 88%, the residual activity [35] was 93% and the residual activity [36] was 88%. It also gave a residual activity [37] of 100%, a residual activity [38] of 82% and a residual activity [39] of 100%. It also gave a residual activity [40] of 79%, a residual activity [41] of 70% and a residual activity [42] of 88%. The residual activity [43] was 97%.
